Measured values from US6117840A, “CS-1 peptidomimetics, compositions and methods of using the same” (Cytel Corporation, priority 1997, dated 2000).
Square brackets hold non-standard residues; d marks the D form. Peptide text beside a SMILES is read from it. * marks the point of attachment. Phe(4-NO2) = N[C@@H](Cc1ccc([N+](=O)[O-])cc1)C(=O)O; Morpholide = C1CN(*)CCO1; Pyrrolidide = C1CCN(*)C1; PhAc = O=C(Cc1ccccc1)*; NHBu = CCCCN*

Each molecule was assayed against T1, VLA-4 (Homo sapiens, UniProt P05556+P13612). Conditions: not given.
T1 construct: host or cells: Jurkat (human T lymphoblastic line)
T1 sequence (P13612 34-1032): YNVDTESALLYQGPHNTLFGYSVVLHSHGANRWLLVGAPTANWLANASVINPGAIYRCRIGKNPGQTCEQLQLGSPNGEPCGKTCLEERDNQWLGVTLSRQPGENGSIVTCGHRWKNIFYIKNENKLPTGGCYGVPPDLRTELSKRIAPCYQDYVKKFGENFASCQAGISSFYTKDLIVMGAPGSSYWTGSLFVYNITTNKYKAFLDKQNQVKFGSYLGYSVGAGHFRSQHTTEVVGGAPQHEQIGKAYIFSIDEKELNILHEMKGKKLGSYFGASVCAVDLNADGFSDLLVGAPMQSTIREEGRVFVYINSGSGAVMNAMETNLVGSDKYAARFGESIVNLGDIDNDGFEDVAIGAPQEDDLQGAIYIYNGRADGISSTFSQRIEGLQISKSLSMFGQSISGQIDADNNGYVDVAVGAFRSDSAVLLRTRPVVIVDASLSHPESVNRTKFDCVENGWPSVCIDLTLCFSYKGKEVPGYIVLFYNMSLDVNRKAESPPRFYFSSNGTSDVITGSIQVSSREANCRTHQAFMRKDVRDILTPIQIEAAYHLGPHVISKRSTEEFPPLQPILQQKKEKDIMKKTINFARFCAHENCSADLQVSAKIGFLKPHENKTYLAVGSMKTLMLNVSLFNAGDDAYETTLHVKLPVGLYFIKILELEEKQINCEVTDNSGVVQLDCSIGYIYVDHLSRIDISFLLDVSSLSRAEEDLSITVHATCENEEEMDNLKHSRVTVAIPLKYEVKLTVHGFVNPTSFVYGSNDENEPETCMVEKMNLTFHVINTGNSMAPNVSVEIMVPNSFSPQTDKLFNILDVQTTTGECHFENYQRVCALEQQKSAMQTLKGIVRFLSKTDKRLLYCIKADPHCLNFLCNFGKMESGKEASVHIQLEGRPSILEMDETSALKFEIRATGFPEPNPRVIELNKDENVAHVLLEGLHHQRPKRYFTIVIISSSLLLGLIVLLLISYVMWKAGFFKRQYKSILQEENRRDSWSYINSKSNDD
T1 sequence (P05556 21-798): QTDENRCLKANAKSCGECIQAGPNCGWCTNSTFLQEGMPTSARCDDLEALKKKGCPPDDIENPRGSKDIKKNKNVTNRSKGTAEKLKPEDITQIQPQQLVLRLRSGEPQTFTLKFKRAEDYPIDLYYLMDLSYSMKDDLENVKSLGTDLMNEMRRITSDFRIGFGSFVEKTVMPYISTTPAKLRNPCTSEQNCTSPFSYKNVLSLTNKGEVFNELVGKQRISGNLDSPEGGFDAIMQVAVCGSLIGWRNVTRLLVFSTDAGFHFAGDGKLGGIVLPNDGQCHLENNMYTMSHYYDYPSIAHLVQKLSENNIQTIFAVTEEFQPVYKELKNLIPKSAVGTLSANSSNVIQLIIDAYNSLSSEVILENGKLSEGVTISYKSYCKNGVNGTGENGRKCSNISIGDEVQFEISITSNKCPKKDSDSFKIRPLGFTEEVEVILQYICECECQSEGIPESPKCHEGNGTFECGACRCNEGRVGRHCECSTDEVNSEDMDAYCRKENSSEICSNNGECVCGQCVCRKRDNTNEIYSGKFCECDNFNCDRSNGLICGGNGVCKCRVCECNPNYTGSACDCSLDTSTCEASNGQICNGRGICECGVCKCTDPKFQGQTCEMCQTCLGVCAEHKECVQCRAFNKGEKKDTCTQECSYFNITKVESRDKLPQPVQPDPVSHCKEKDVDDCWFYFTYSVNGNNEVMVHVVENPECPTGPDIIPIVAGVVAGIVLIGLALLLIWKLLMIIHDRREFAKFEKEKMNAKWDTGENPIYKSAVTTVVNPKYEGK
Assay type: cell-based
Protocol: Binding inhibition is measured here as a concentration of peptide that inhibits one-half the binding between a standard number of Jurkat cells and a standard amount of CS-1 peptide bound to the surface of a microtiter plate well. Those concentrations are conveniently expressed as IC50 values, smaller numbers indicating a lower concentration required to inhibit 50 percent binding and therefore greater potency. Further specifics of this assay are provided hereinafter.
Jurkat cells (ATCC TIB 152), a human T lymphoblastic line, labeled with ^51 chromium were used to assay in vitro binding inhibition provided by various peptides discussed herein.
The plates were prepared as follows: The 25-mer CS1 peptide (SEQ ID NO:1) dissolved at 0.5-1 μg/ml in a buffer of 0.1M NaHCO3 at pH 9.5 tha also contained 10 μg/ml of bovine serum albumin (BSA) or a conjugate o the CS1 peptide linked to ovalbumin (CS1-OVA) dissolved at 1-2.5 μg/ml in the same buffer was used as the substrate. Each well of the microtiter plates was coated with 50 μl of substrate or buffer alone for controls The wells were permitted to dry out completely and were then rinsed twice with PBS at pH 7.4. Nonspecific binding sites of each well were then blocked using 200 μl per well of RPMI/1 percent BSA for two hours at room temperature. Both solid phaseaffixed substrates provided similar results.
Jurkat cells (3-5×10^6 cells) were placed into a 15 ml Falcon.TM roundbottom tube with a cap. The tube was centrifuged, and the extra medium was then removed.
Two hundred microliters of a ^51 Cr labeling solution were added to th centrifuged cells and maintained in contact with the cells for 90-120 minutes in a warm room. This procedure typically provides about 50,000-100,000 cpm/well with about 80-100 percent cell viability. Longer contact times provide a greater amount of labeling but lower cell viability.
The labeled cells are washed with (i) complete medium, (ii) 1 mM EDTA/PBS and then (iii) RPMI/1 percent BSA free of serum components. The cells are centrifuged after each washing. The cells are finally resuspended in serumfree RPMI/1 percent BSA at a concentration of 1×10^6 viabl cells/ml, which provides a concentration that is diluted by onehalf in th assay.
Inhibitor peptides are prepared as stock solutions at 20 mg/ml in DMSO in 1.5 ml cryogenic screwcap vials, and were stored at -70° C. Using Flow™ roundbottom or Vbottom microtiter plates, the inhibitor peptides were prepared at twice the assay concentration in RPMI/1 percent BSA at 6 μl/well.
Four initial dilutions were typically used.
The ^51 Crlabeled cells (1×10^6 cells at 60 μl/well) were then admixed with the diluted peptide solutions. The admixtures were maintained at room temperature (about 22° C.) for 30 minutes.
One hundred microliters of each inhibitor peptide/cell admixture were transferred to the substratecoated wells. This was done in triplicate for each dilution. The resulting plates were incubated for 30 minutes at 37° C. and then washed gently three times with RPMI/1 percent BSA at 200 μl/well. Binding was observed microscopically, particularly after the second wash.
The bound cells were then lysed by the addition of a 0.5 percent solution of sodium dodecylsulfate in water at 100 μl/well. The resulting solutions were then processed for counting and calculation of IC50 values following usual procedures. Appropriate positive and negative controls were used with each plate so that the results of separate assays could be normalized and compared.
With `CC(C)C[C@H](NC(=O)Cc1ccccc1)C(=O)N[C@@H](CC(=O)O)C(=O)N[C@@H](Cc1ccccc1)C(=O)N1CCC[C@H]1C(=O)NCCN(CCN(CCN(CCNC(=O)[C@@H]1CCCN1C(=O)[C@H](Cc1ccccc1)NC(=O)[C@H](CC(=O)O)NC(=O)[C@H](CC(C)C)NC(=O)Cc1ccccc1)C(=O)[C@@H]1CCCN1C(=O)[C@H](Cc1ccccc1)NC(=O)[C@H](CC(=O)O)NC(=O)[C@H](CC(C)C)NC(=O)Cc1ccccc1)C(=O)[C@@H]1CCCN1C(=O)[C@H](Cc1ccccc1)NC(=O)[C@H](CC(=O)O)NC(=O)[C@H](CC(C)C)NC(=O)Cc1ccccc1)C(=O)[C@@H]1CCCN1C(=O)[C@H](Cc1ccccc1)NC(=O)[C@H](CC(=O)O)NC(=O)[C@H](CC(C)C)NC(=O)Cc1ccccc1` the “VLA-4 binding inhibition, times better than the standard 10-mer peptide of SEQ ID NO:3” value was “about 210 times”.
With `CC(=O)N[C@@H](CC(C)C)C(=O)N[C@@H](CC(=O)O)C(=O)N[C@@H](Cc1ccccc1)C(N)=O` [L D F acetyl amide] (Ac-Leu-Asp-Phe-NH2) the “RELATIVE POTENCY (inhibition of VLA-4 binding CS-1)” value was 0.

Same assay, conditions: relative to standard peptide SEQ ID NO:3 (=1), normalized IC50; about one-tenth or less of SEQ ID NO:3 assigned zero
`CC(C)C[C@H](NC(=O)Cc1ccccc1)C(=O)N[C@@H](CC(=O)O)C(=O)N[C@@H](Cc1ccc([N+](=O)[O-])cc1)C(=O)N1CCC[C@@H]1C(N)=O` (PhAc-LD[Phe(4-NO2)][dP]-NH2) was tested, and the “RELATIVE POTENCY (inhibition of VLA-4 binding CS-1)” value was 40.
For `CC(C)C[C@H](NC(=O)Cc1ccccc1)C(=O)N[C@@H](CC(=O)O)C(=O)N[C@H]1Cc2ccccc2[C@H]2CCCCN2C1=O`, the “RELATIVE POTENCY (inhibition of VLA-4 binding CS-1)” value was 50.
`CCCCNC(=O)[C@H](Cc1ccccc1)NC(=O)[C@H](CC(=O)O)NC(=O)[C@H](CC(C)C)NC(=O)Cc1ccccc1` [X L D F Z phenylacetyl n-butylamide] (PhAc-Leu-Asp-Phe-NHBu) was tested, and the “RELATIVE POTENCY (inhibition of VLA-4 binding CS-1)” value was 3.
In the case of `CC(C)C[C@H](NC(=O)Cc1ccccc1)C(=O)N[C@@H](CC(=O)O)C(=O)N[C@@H](CC(C)C)C(=O)N1CCOCC1` [X L D L Z phenylacetyl morpholinamide] (PhAc-Leu-Asp-Leu-Morpholide), the “RELATIVE POTENCY (inhibition of VLA-4 binding CS-1)” value is reported as 291.
`CC(C)C[C@H](NC(=O)Cc1ccccc1)C(=O)N[C@@H](CC(=O)O)C(=O)N[C@@H](Cc1ccccc1)C(=O)N1CCC(O)CC1` was tested, and the “RELATIVE POTENCY (inhibition of VLA-4 binding CS-1)” value was 603.
In the case of `CC(C)C[C@H](NC(=O)Cc1ccccc1)C(=O)N[C@@H](CC(=O)O)C(=O)N[C@@H]1CCCCNC1=O`, the “RELATIVE POTENCY (inhibition of VLA-4 binding CS-1)” value is reported as 17.
For `CC(C)C[C@H](NC(=O)Cc1ccccc1)C(=O)N[C@@H](CC(=O)O)C(=O)N[C@@H](Cc1ccccc1)C(=O)N1CCCC1` [X L D F Z phenylacetyl pyrrolidinamide] (PhAc-Leu-Asp-Phe-Pyrrolidide), the “RELATIVE POTENCY (inhibition of VLA-4 binding CS-1)” value was 250.
In the case of `CC(C)C[C@H](NC(=O)Cc1ccccc1)C(=O)N[C@@H](CC(=O)O)C(=O)NC1Cc2ccccc2N(CC(C)C)C1=O` (stereo partly shown), the “RELATIVE POTENCY (inhibition of VLA-4 binding CS-1)” value is reported as 6.
For `CC(C)C[C@H](NC(=O)c1ccccc1)C(=O)N[C@@H](CC(=O)O)C(=O)N[C@H](C(=O)N1CCC[C@H]1C(N)=O)C(C)C` [X L D V P benzoyl amide], the “RELATIVE POTENCY (inhibition of VLA-4 binding CS-1)” value was 37.
In the case of `CC(C)C[C@H](NC(=O)Cc1ccccc1)C(=O)N[C@@H](CC(=O)O)C(=O)NC1Cc2ccccc2NC1=O` (stereo partly shown), the “RELATIVE POTENCY (inhibition of VLA-4 binding CS-1)” value is reported as 31.
For `CC(C)C[C@H](NC(=O)Cc1ccccc1)C(=O)N[C@@H](CC(=O)O)C(=O)NCC(=O)N1CCOCC1` [X L D G Z phenylacetyl morpholinamide] (PhAc-Leu-Asp-Gly-Morpholide), the “RELATIVE POTENCY (inhibition of VLA-4 binding CS-1)” value was 9.
`CC(C)C[C@H](NC(=O)Cc1ccccc1)C(=O)N[C@@H](CC(=O)O)C(=O)N[C@@H](Cc1ccccc1)C(=O)N1CCN(CCOCCO)CC1` was tested, and the “RELATIVE POTENCY (inhibition of VLA-4 binding CS-1)” value was 505.
`CC(C)C[C@H](NC(=O)Cc1ccccc1)C(=O)N[C@@H](CC(=O)O)C(=O)N[C@@H](CO)C(=O)N1CCC[C@@H]1C(N)=O` [X L D S p phenylacetyl amide] (PhAc-LDS[dP]-NH2) was tested, and the “RELATIVE POTENCY (inhibition of VLA-4 binding CS-1)” value was 17.

Same assay, conditions: relative to standard peptide SEQ ID NO:3 (=1), normalized IC50; about one-tenth or less of SEQ ID NO:3 assigned zero; listed as X L D V p benzoyl amide
`CC(C)C[C@H](NC(=O)c1ccccc1)C(=O)N[C@@H](CC(=O)O)C(=O)N[C@H](C(=O)N1CCC[C@H]1C(N)=O)C(C)C` [X L D V P benzoyl amide] was tested, and the “RELATIVE POTENCY (inhibition of VLA-4 binding CS-1)” value was 20.
